≈ marks a conversion by molar mass, not a printed value. Where two headings read alike, the source gives them in different places.
Tests used:
Listeria monocytogenes = assay: Growth inhibitory activity, antibiotic dilution technique; conditions: read-out: Minimum inhibitory concentration
Pasteurella multocida = assay: as above; conditions: read-out: Minimum inhibitory concentration
Klebsiella pneumoniae = assay: Minimum growth inhibitory and bactericidal concentrations for Enterobacteriaceae; assay type: cell-based; conditions: for MBC: read-out: MBC, minimum bactericidal concentration; for MIC: read-out: MIC, Minimum growth inhibitory concentration
From the text: (§1) Miscellaneous. Methods for determining bactericidal activity and susceptibility to cell-free β-lactamase were those previously used; Leitner et al., BL-S640, A Cephalosporin With a Broad Spectrum of Antibacterial Activity: Properties in vitro, Antimicrob. Agents Chemother. 7:298-305 (1975).
(§2) *MIC, Minimum growth inhibitory concentration; MBC, minimum bactericidal
(§3) concentration; expressed as micrograms per milliliter. The inoculum was […]

Proteus mirabilis [1] = assay: as above; assay type: cell-based; conditions: for MBC: read-out: MBC, minimum bactericidal concentration; for MIC: read-out: MIC, Minimum growth inhibitory concentration
From the text: as §1, §2, §3

Enterobacter aerogenes = assay: as above; assay type: cell-based; conditions: Klebsiella aerogenes, inoculum 10^4 cells; for MBC: read-out: MBC, minimum bactericidal concentration; for MIC: read-out: MIC, Minimum growth inhibitory concentration
From the text: as §1, §2, §3

Enterobacter cloacae = assay: as above; assay type: cell-based; conditions: for MBC: read-out: MBC, minimum bactericidal concentration; for MIC: read-out: MIC, Minimum growth inhibitory concentration
From the text: as §1, §2, §3

Proteus rettgeri [2] = assay: as above; assay type: cell-based; conditions: Providencia rettgeri, inoculum 10^4 cells; for MBC: read-out: MBC, minimum bactericidal concentration; for MIC: read-out: MIC, Minimum growth inhibitory concentration
From the text: as §1, §2, §3

Proteus vulgaris = assay: as above; assay type: cell-based; conditions: Proteus vulgaris, inoculum 10^4 cells; for MBC: read-out: MBC, minimum bactericidal concentration; for MIC: read-out: MIC, Minimum growth inhibitory concentration
From the text: as §1, §2, §3

Escherichia coli [3] = assay: as above; assay type: cell-based; conditions: for MBC: read-out: MBC, minimum bactericidal concentration; for MIC: read-out: MIC, Minimum growth inhibitory concentration
From the text: as §1, §2, §3

Proteus mirabilis [4] = assay: Effect of inoculum size on susceptibility of Enterobacteriaceae
[5] = biological target: staphylococcal β-lactamase, Staphylococcus aureus A9606 (Staphylococcus aureus, UniProt P00807); assay: Hydrolysis by β-lactamase in cell-free extracts; assay type: biochemical; conditions: cell-free extract
Method: as §1
Susceptibility to β-lactamase. Susceptibility to enzymic hydrolysis was assessed by determining relative rates of hydrolysis by cell-free preparations of various β-lactamases (Table 6). BL-S786 was slightly to markedly less susceptible than the other cephalosporins to hydrolysis by β-lactamases of Type Ia, Ib, IIIa and IVa. All cephalosporins were poor substrates for Type IIa and staphylococcal β-lactamases. The four cephalosporins were hydrolyzed at similar rates by the Type IVb enzyme.

Clostridium sp. = assay: microbe, parasite or virus in culture; assay type: cell-based; conditions: read-out: Minimum inhibitory concentration
Method: Antibiotic spectrum. […] Procedures were as follows:
c. Obligate anaerobes. The assay was performed on solid medium, consisting of Brain Heart Infusion Broth (BBL) supplemented with 5% defibrinated sheep blood and 1% Ionagar (Colab).

Proteus rettgeri [6] = assay: Growth inhibitory activity, antibiotic dilution technique
Escherichia coli [7] = assay: Effect of inoculum size on susceptibility of Enterobacteriaceae
Citrobacter sp. = assay: Growth inhibitory activity, antibiotic dilution technique
[8] = Klebsiella pneumoniae strain 1, inoculum 10^4 cells
[9] = Klebsiella pneumoniae strain 2, inoculum 10^4 cells
[10] = Klebsiella pneumoniae strain 3, inoculum 10^4 cells
[11] = Klebsiella pneumoniae strain 4, inoculum 10^4 cells
[12] = Klebsiella pneumoniae strain 5, inoculum 10^4 cells
[13] = Klebsiella pneumoniae strain 6, inoculum 10^4 cells
[14] = Proteus mirabilis strain 1, inoculum 10^4 cells
[15] = Proteus mirabilis strain 2, inoculum 10^4 cells
[16] = Proteus mirabilis strain 3, inoculum 10^4 cells
[17] = Proteus mirabilis strain 4, inoculum 10^4 cells
[18] = Proteus mirabilis strain 5, inoculum 10^4 cells
[19] = Enterobacter aerogenes strain 1
[20] = Enterobacter aerogenes strain 2
[21] = Enterobacter aerogenes strain 3
[22] = Enterobacter cloacae strain 3, inoculum 10^4 cells
[23] = Enterobacter cloacae strain 4, inoculum 10^4 cells
[24] = Enterobacter cloacae strain 8, inoculum 10^4 cells
[25] = Escherichia coli strain 1, inoculum 10^4 cells
[26] = Escherichia coli strain 2, inoculum 10^4 cells
[27] = Escherichia coli strain 3, inoculum 10^4 cells
[28] = Escherichia coli strain 4, inoculum 10^4 cells
[29] = Escherichia coli strain 5, inoculum 10^4 cells
[30] = Escherichia coli strain 6, inoculum 10^4 cells

Chain of staphylococcal β-lactamase, Staphylococcus aureus A9606 (P00807 25-281): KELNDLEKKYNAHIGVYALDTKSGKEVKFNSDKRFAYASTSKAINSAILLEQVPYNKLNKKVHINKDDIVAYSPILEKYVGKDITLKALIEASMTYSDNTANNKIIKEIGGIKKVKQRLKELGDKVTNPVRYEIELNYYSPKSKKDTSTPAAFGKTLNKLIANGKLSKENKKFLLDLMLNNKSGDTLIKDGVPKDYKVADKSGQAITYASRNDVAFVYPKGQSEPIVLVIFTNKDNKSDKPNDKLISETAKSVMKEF

CC(=O)OCC1=C(C(=O)O)N2C(=O)[C@@H](NC(=O)Cc3cccs3)[C@H]2SC1 [Cephalothin]
MIC (Listeria monocytogenes): 2 mg/L (≈ 5.04 µM) | MIC (Pasteurella multocida): 0.09 mg/L (≈ 0.227 µM) | MBC (Klebsiella pneumoniae; [8]): 2 mg/L (≈ 5.04 µM) | MIC (Klebsiella pneumoniae; [8]): 2 mg/L (≈ 5.04 µM) | MBC (Klebsiella pneumoniae; [9]): 8 mg/L (≈ 20.2 µM) | MIC (Klebsiella pneumoniae; [9]): 4 mg/L (≈ 10.1 µM) | MBC (Klebsiella pneumoniae; [10]): 4 mg/L (≈ 10.1 µM) | MIC (Klebsiella pneumoniae; [10]): 2 mg/L (≈ 5.04 µM) | MBC (Klebsiella pneumoniae; [11]): 4 mg/L (≈ 10.1 µM) | MIC (Klebsiella pneumoniae; [11]): 4 mg/L (≈ 10.1 µM) | MBC (Klebsiella pneumoniae; [12]): 8 mg/L (≈ 20.2 µM) | MIC (Klebsiella pneumoniae; [12]): 8 mg/L (≈ 20.2 µM) | MBC (Klebsiella pneumoniae; [13]): 2 mg/L (≈ 5.04 µM) | MIC (Klebsiella pneumoniae; [13]): 2 mg/L (≈ 5.04 µM) | MBC (Proteus mirabilis [1]; [14]): 32 mg/L (≈ 80.7 µM) | MIC (Proteus mirabilis [1]; [14]): 8 mg/L (≈ 20.2 µM) | MBC (Proteus mirabilis [1]; [15]): 32 mg/L (≈ 80.7 µM) | MIC (Proteus mirabilis [1]; [15]): 8 mg/L (≈ 20.2 µM) | MBC (Proteus mirabilis [1]; [16]): 8 mg/L (≈ 20.2 µM) | MIC (Proteus mirabilis [1]; [16]): 8 mg/L (≈ 20.2 µM) | MBC (Proteus mirabilis [1]; [17]): 8 mg/L (≈ 20.2 µM) | MIC (Proteus mirabilis [1]; [17]): 4 mg/L (≈ 10.1 µM) | MBC (Proteus mirabilis [1]; [18]): 16 mg/L (≈ 40.4 µM) | MIC (Proteus mirabilis [1]; [18]): 8 mg/L (≈ 20.2 µM) | MBC (Enterobacter aerogenes; [19]): 250 mg/L (≈ 631 µM) | MIC (Enterobacter aerogenes; [19]): 125 mg/L (≈ 315 µM) | MBC (Enterobacter aerogenes; [20]): > 250 mg/L | MIC (Enterobacter aerogenes; [20]): 125 mg/L (≈ 315 µM) | MBC (Enterobacter aerogenes; [21]): > 250 mg/L | MIC (Enterobacter aerogenes; [21]): 250 mg/L (≈ 631 µM) | MBC (Enterobacter cloacae; [22]): 63 mg/L (≈ 159 µM) | MIC (Enterobacter cloacae; [22]): 32 mg/L (≈ 80.7 µM) | MBC (Enterobacter cloacae; [23]): > 250 mg/L | MIC (Enterobacter cloacae; [23]): 250 mg/L (≈ 631 µM) | MBC (Enterobacter cloacae; [24]): > 250 mg/L | MIC (Enterobacter cloacae; [24]): > 250 mg/L | MBC (Proteus rettgeri [2]; Proteus rettgeri strain 2): 2 mg/L (≈ 5.04 µM) | MIC (Proteus rettgeri [2]; Proteus rettgeri strain 2): 1 mg/L (≈ 2.52 µM) | MBC (Proteus rettgeri [2]; Proteus rettgeri strain 3): 250 mg/L (≈ 631 µM) | MIC (Proteus rettgeri [2]; Proteus rettgeri strain 3): 125 mg/L (≈ 315 µM) | MBC (Proteus vulgaris; Proteus vulgaris strain 1): 2 mg/L (≈ 5.04 µM) | MIC (Proteus vulgaris; Proteus vulgaris strain 1): 1 mg/L (≈ 2.52 µM) | MBC (Proteus vulgaris; Proteus vulgaris strain 2): 16 mg/L (≈ 40.4 µM) | MIC (Proteus vulgaris; Proteus vulgaris strain 2): 8 mg/L (≈ 20.2 µM) | MBC (Proteus vulgaris; Proteus vulgaris strain 4): 16 mg/L (≈ 40.4 µM) | MIC (Proteus vulgaris; Proteus vulgaris strain 4): 8 mg/L (≈ 20.2 µM) | MBC (Escherichia coli [3]; [25]): 16 mg/L (≈ 40.4 µM) | MIC (Escherichia coli [3]; [25]): 8 mg/L (≈ 20.2 µM) | MBC (Escherichia coli [3]; [26]): 32 mg/L (≈ 80.7 µM) | MIC (Escherichia coli [3]; [26]): 32 mg/L (≈ 80.7 µM) | MBC (Escherichia coli [3]; [27]): 8 mg/L (≈ 20.2 µM) | MIC (Escherichia coli [3]; [27]): 4 mg/L (≈ 10.1 µM) | MBC (Escherichia coli [3]; [28]): 16 mg/L (≈ 40.4 µM) | MIC (Escherichia coli [3]; [28]): 8 mg/L (≈ 20.2 µM) | MBC (Escherichia coli [3]; [29]): 16 mg/L (≈ 40.4 µM) | MIC (Escherichia coli [3]; [29]): 16 mg/L (≈ 40.4 µM) | MBC (Escherichia coli [3]; [30]): 16 mg/L (≈ 40.4 µM) | MIC (Escherichia coli [3]; [30]): 16 mg/L (≈ 40.4 µM) | MIC (Proteus mirabilis [4]; read-out: Minimum Inhibitory Concentration, Proteus mirabilis strain 1, A, Inoculum of 10^2 organisms): 8 mg/L (≈ 20.2 µM) | MIC (Proteus mirabilis [4]; read-out: Minimum Inhibitory Concentration, Proteus mirabilis strain 1, B, Inoculum of 10^6 organisms): 16 mg/L (≈ 40.4 µM) | MIC (Proteus mirabilis [4]; read-out: Minimum Inhibitory Concentration, Proteus mirabilis strain 2, A, Inoculum of 10^2 organisms): 4 mg/L (≈ 10.1 µM) | MIC (Proteus mirabilis [4]; read-out: Minimum Inhibitory Concentration, Proteus mirabilis strain 2, B, Inoculum of 10^6 organisms): 32 mg/L (≈ 80.7 µM) | MIC (Proteus mirabilis [4]; read-out: Minimum Inhibitory Concentration, Proteus mirabilis strain 3, A, Inoculum of 10^2 organisms): 16 mg/L (≈ 40.4 µM) | MIC (Proteus mirabilis [4]; read-out: Minimum Inhibitory Concentration, Proteus mirabilis strain 3, B, Inoculum of 10^6 organisms): 32 mg/L (≈ 80.7 µM) | MIC (Proteus mirabilis [4]; read-out: Minimum Inhibitory Concentration, Proteus mirabilis strain 4, A, Inoculum of 10^2 organisms): 8 mg/L (≈ 20.2 µM) | MIC (Proteus mirabilis [4]; read-out: Minimum Inhibitory Concentration, Proteus mirabilis strain 4, B, Inoculum of 10^6 organisms): 32 mg/L (≈ 80.7 µM) | MIC (Proteus mirabilis [4]; read-out: Minimum Inhibitory Concentration, Proteus mirabilis strain 5, A, Inoculum of 10^2 organisms): 8 mg/L (≈ 20.2 µM) | MIC (Proteus mirabilis [4]; read-out: Minimum Inhibitory Concentration, Proteus mirabilis strain 5, B, Inoculum of 10^6 organisms): 32 mg/L (≈ 80.7 µM) | Relative Rate of Hydrolysis (benzylpenicillin = 100) [5]: < 0.5 | MIC (Clostridium sp.): 0.5 mg/L (≈ 1.26 µM) | percent of strains inhibited (Proteus rettgeri [6]): negligible | MIC (Escherichia coli [7]; read-out: Minimum Inhibitory Concentration, Escherichia coli strain 1, A, Inoculum of 10^2 organisms): 8 mg/L (≈ 20.2 µM) | MIC (Escherichia coli [7]; read-out: Minimum Inhibitory Concentration, Escherichia coli strain 1, B, Inoculum of 10^6 organisms): 32 mg/L (≈ 80.7 µM) | MIC (Escherichia coli [7]; read-out: Minimum Inhibitory Concentration, Escherichia coli strain 2, A, Inoculum of 10^2 organisms): 16 mg/L (≈ 40.4 µM) | MIC (Escherichia coli [7]; read-out: Minimum Inhibitory Concentration, Escherichia coli strain 2, B, Inoculum of 10^6 organisms): 32 mg/L (≈ 80.7 µM) | MIC (Escherichia coli [7]; read-out: Minimum Inhibitory Concentration, Escherichia coli strain 3, A, Inoculum of 10^2 organisms): 4 mg/L (≈ 10.1 µM) | MIC (Escherichia coli [7]; read-out: Minimum Inhibitory Concentration, Escherichia coli strain 3, B, Inoculum of 10^6 organisms): 16 mg/L (≈ 40.4 µM) | MIC (Escherichia coli [7]; read-out: Minimum Inhibitory Concentration, Escherichia coli strain 4, A, Inoculum of 10^2 organisms): 4 mg/L (≈ 10.1 µM) | MIC (Escherichia coli [7]; read-out: Minimum Inhibitory Concentration, Escherichia coli strain 4, B, Inoculum of 10^6 organisms): 32 mg/L (≈ 80.7 µM) | MIC (Escherichia coli [7]; read-out: Minimum Inhibitory Concentration, Escherichia coli strain 5, A, Inoculum of 10^2 organisms): 4 mg/L (≈ 10.1 µM) | MIC (Escherichia coli [7]; read-out: Minimum Inhibitory Concentration, Escherichia coli strain 5, B, Inoculum of 10^6 organisms): 32 mg/L (≈ 80.7 µM) | MIC (Escherichia coli [7]; read-out: Minimum Inhibitory Concentration, Escherichia coli strain 6, A, Inoculum of 10^2 organisms): 8 mg/L (≈ 20.2 µM) | MIC (Escherichia coli [7]; read-out: Minimum Inhibitory Concentration, Escherichia coli strain 6, B, Inoculum of 10^6 organisms): 16 mg/L (≈ 40.4 µM) | MIC (Escherichia coli [7]; read-out: Minimum Inhibitory Concentration, Escherichia coli strain 7, A, Inoculum of 10^2 organisms): 1 mg/L (≈ 2.52 µM) | MIC (Escherichia coli [7]; read-out: Minimum Inhibitory Concentration, Escherichia coli strain 7, B, Inoculum of 10^6 organisms): 8 mg/L (≈ 20.2 µM) | MIC (Citrobacter sp.; read-out: Minimum inhibitory concentration, Citrobacter sp., 1 strain): > 125 mg/L | MIC (Citrobacter sp.; read-out: Minimum inhibitory concentration, Citrobacter sp., 4 strains, geometric mean when applicable): 63 mg/L (≈ 159 µM)

— patent US4100346A, “Certain 7(o-amino-methyl- or methylaminomethylphenyl- or cyclohexadienyl- or thienylacetamide)-3[1-carboxymethyl-(or ethyl- or propyl-)-tetrazol-5-ylthiomethyl]-3-cephem-4-carboxylic acids” (Bristol-Myers Company, priority 1976, dated 1978)
